System: spinal disc
Test: Disc injections containing only one constituent
Format: in vivo
Conditions: injections with only one of glucosamine and chondroitin sulfate
From the text: Common to all formulations according to this invention is the inclusion, in an injectable tolerated by the spinal disc, of both glucosamine and chondroitin sulfate (in a buffered injectable solution).

Compound | value of the injection
N[C@H]1C(O)O[C@H](CO)[C@@H](O)[C@@H]1O (some centres unmarked) [glucosamine] | without value
chondroitin sulfate | without value

Source: patent US20140066389A1, “METHOD AND PHARMACEUTICAL TO TREAT SPINAL DISCS” (priority 2000, published 2014)
